According to the NIST ThermoML archive (doi:10.1021/je800468h):
Values joined by “and” are separate entries in the source; they are usually repeats but may differ in a detail not shown here. Equal values may be shown once.

Legend:
[1] = 298.15 K, 101 kPa, Liquid; for electrical conductivity: Alternating current cell with electrodes; for mass density: Vibrating tube method
[2] = xn = mol fraction of the nth substance listed; details: 298.15 K, 101 kPa, Liquid; for electrical conductivity: Alternating current cell with electrodes; for mass density: Vibrating tube method

CCCCn1cc[n+](C)c1.N#CN=C=[N-] [1-butyl-3-methylimidazolium dicyanamide]
[1]
Details | electrical conductivity [S/m] | mass density [kg/m3]
– | 1.139 | 1059.12

CCCCn1cc[n+](C)c1.N#CN=C=[N-] [1-butyl-3-methylimidazolium dicyanamide] + O
[2]
Details | electrical conductivity [S/m] | mass density [kg/m3]
x1 = 0.009639 | 2.02 | 1003.22
x1 = 0.02791 | 3.49 | 1011.25
x1 = 0.05432 | 4.43 | 1019.63
x1 = 0.07995 | 4.8 | 1025.43
x1 = 0.1112 | 4.9 | 1031.05
x1 = 0.1933 | 4.47 | 1040.01
x1 = 0.3214 | 3.55 | 1047.31
x1 = 0.4686 | 2.71 | 1051.86
x1 = 0.6386 | 2 | 1055.38
x1 = 0.8742 | 1.37 | 1058.33
x1 = 1 | 1.139 | 1059.12

CCCCn1cc[n+](C)c1.F[P-](F)(F)(F)(F)F [1-butyl-3-methylimidazolium hexafluorophosphate]
[1]
Details | electrical conductivity [S/m] | mass density [kg/m3]
– | 0.147 | 1368.32

CCCCn1cc[n+](C)c1.F[P-](F)(F)(F)(F)F [1-butyl-3-methylimidazolium hexafluorophosphate] + CC#N
[2]
Details | electrical conductivity [S/m] | mass density [kg/m3]
x1 = 0.007571 | 1.49 | 795.63
x1 = 0.01576 | 2.54 | 815.17
x1 = 0.02489 | 3.39 | 835.56
x1 = 0.03448 | 4.05 | 855.89
x1 = 0.05838 | 5 | 901.77
x1 = 0.08779 | 5.39 | 950.71
x1 = 0.1261 | 5.27 | 1004.47
x1 = 0.1772 | 4.68 | 1062.7
x1 = 0.2521 | 3.63 | 1128.61
x1 = 0.3649 | 2.3 | 1199.71
x1 = 0.5591 | 0.995 | 1278.14
x1 = 0.7291 | 0.469 | 1321.97
x1 = 0.8729 | 0.253 | 1349.76
x1 = 1 | 0.147 | 1368.32

CCCCn1cc[n+](C)c1.F[B-](F)(F)F [1-butyl-3-methylimidazolium tetrafluoroborate]
[1]
Details | electrical conductivity [S/m] | mass density [kg/m3]
– | 0.353 | 1202.19

CCCCn1cc[n+](C)c1.F[B-](F)(F)F [1-butyl-3-methylimidazolium tetrafluoroborate] + CO
[2]
Details | electrical conductivity [S/m] | mass density [kg/m3]
x1 = 0.007409 | 0.867 | 802.48
x1 = 0.01543 | 1.45 | 818.28
x1 = 0.02435 | 1.97 | 834.29
x1 = 0.03355 | 2.4 | 849.76
x1 = 0.05717 | 3.3 | 885.02
x1 = 0.08589 | 3.81 | 921.13
x1 = 0.1242 | 4.18 | 961.01
x1 = 0.1755 | 4.26 | 1002.48
x1 = 0.248 | 3.92 | 1046.31
x1 = 0.3624 | 3.09 | 1094.85
x1 = 0.5583 | 1.76 | 1145.28

CCCCn1cc[n+](C)c1.F[B-](F)(F)F [1-butyl-3-methylimidazolium tetrafluoroborate] + C[S+](C)[O-]
[2]
Details | electrical conductivity [S/m] | mass density [kg/m3]
x1 = 0.01925 | 0.687 | 1101.56
x1 = 0.03427 | 1.029 | 1106.21
x1 = 0.07837 | 1.56 | 1117.8
x1 = 0.1247 | 1.715 | 1128.31
x1 = 0.1866 | 1.67 | 1139.5
x1 = 0.2554 | 1.502 | 1150.71
x1 = 0.3251 | 1.31 | 1159.4
x1 = 0.4423 | 1.015 | 1171.71
x1 = 0.5246 | 0.854 | 1178.2
x1 = 0.6132 | 0.711 | 1184.27
x1 = 0.7494 | 0.543 | 1192.13

CCCCn1cc[n+](C)c1.F[B-](F)(F)F [1-butyl-3-methylimidazolium tetrafluoroborate] + ClCCl
[2], x1 = 1
Details | electrical conductivity [S/m] | mass density [kg/m3]
– | 0.353 | 1202.19

CCCCn1cc[n+](C)c1.F[B-](F)(F)F [1-butyl-3-methylimidazolium tetrafluoroborate] + O
[2]
Details | electrical conductivity [S/m] | mass density [kg/m3]
x1 = 0.005053 | 1.72 | 1007
x1 = 0.008751 | 2.47 | 1013.47
x1 = 0.01927 | 3.59 | 1030.78
x1 = 0.03304 | 4.46 | 1047.81
x1 = 0.04969 | 4.9 | 1065.19
x1 = 0.07385 | 5.17 | 1084.47
x1 = 0.1053 | 5.21 | 1103.47
x1 = 0.1566 | 4.93 | 1124.77
x1 = 0.1991 | 4.55 | 1137.3
x1 = 0.2824 | 3.71 | 1154.46
x1 = 0.414 | 2.57 | 1171.08
x1 = 0.4919 | 2.04 | 1177.86
x1 = 0.5749 | 1.57 | 1183.94
x1 = 0.6838 | 1.1 | 1190.14
x1 = 0.7594 | 0.846 | 1193.53
x1 = 0.8931 | 0.527 | 1198.74
x1 = 1 | 0.353 | 1202.19

CCn1cc[n+](C)c1.F[B-](F)(F)F [1-ethyl-3-methylimidazolium tetrafluoroborate]
[1]
Details | electrical conductivity [S/m] | mass density
– | 1.55 | 1283.7 kg/m3 and 1283.7 kg/m3 and 1280.38 kg/m3

CCn1cc[n+](C)c1.F[B-](F)(F)F [1-ethyl-3-methylimidazolium tetrafluoroborate] + CC#N
[2]
Details | electrical conductivity [S/m] | mass density
x1 = 0.008411 | 1.58 | 791.26 kg/m3
x1 = 0.01082 | 1.9 | 795.48 kg/m3
x1 = 0.01528 | 2.46 | 802.59 kg/m3
x1 = 0.01646 | 2.55 | 804.68 kg/m3
x1 = 0.02252 | 3.13 | 814.3 kg/m3
x1 = 0.02253 | 3.14 | 813.87 kg/m3
x1 = 0.04929 | 4.89 | 853.38 kg/m3
x1 = 0.04942 | 4.94 | 854.17 kg/m3
x1 = 0.08059 | 6.03 | 893.87 kg/m3
x1 = 0.1007 | 6.5 | 916.26 kg/m3
x1 = 0.1218 | 6.72 | 939.88 kg/m3
x1 = 0.1433 | 6.94 | 960.07 kg/m3
x1 = 0.1736 | 6.92 | 988.57 kg/m3
x1 = 0.2043 | 6.91 | 1012.5 kg/m3
x1 = 0.2371 | 6.65 | 1038.16 kg/m3
x1 = 0.2778 | 6.41 | 1063.36 kg/m3
x1 = 0.3264 | 5.9 | 1093.25 kg/m3
x1 = 0.384 | 5.41 | 1120.11 kg/m3
x1 = 0.4565 | 4.64 | 1153.25 kg/m3
x1 = 0.4888 | 4.44 | 1163.04 kg/m3
x1 = 0.6478 | 3.2 | 1211.72 kg/m3
x1 = 0.652 | 3.1 | 1215.55 kg/m3
x1 = 0.759 | 2.54 | 1237.95 kg/m3
x1 = 0.8336 | 2.11 | 1255.87 kg/m3
x1 = 0.8902 | 1.95 | 1263.01 kg/m3
x1 = 1 | 1.55 | 1283.7 kg/m3 and 1280.38 kg/m3

CCn1cc[n+](C)c1.F[B-](F)(F)F [1-ethyl-3-methylimidazolium tetrafluoroborate] + O
[2]
Details | electrical conductivity [S/m] | mass density [kg/m3]
x1 = 0.004746 | 1.87 | 1007.69
x1 = 0.01001 | 3.26 | 1018.31
x1 = 0.02226 | 5.35 | 1040.22
x1 = 0.03637 | 6.81 | 1061.36
x1 = 0.05733 | 8.08 | 1087.31
x1 = 0.08102 | 8.84 | 1110.93
x1 = 0.115 | 9.24 | 1136.45
x1 = 0.174 | 9.08 | 1168.6
x1 = 0.2564 | 8.13 | 1198.61
x1 = 0.419 | 5.99 | 1233.28
x1 = 1 | 1.55 | 1283.7

CCCCCCn1cc[n+](C)c1.F[B-](F)(F)F [1-hexyl-3-methylimidazolium tetrafluoroborate]
[1]
Details | electrical conductivity [S/m] | mass density [kg/m3]
– | 0.1228 | 1146.34

CCCCCCn1cc[n+](C)c1.F[B-](F)(F)F [1-hexyl-3-methylimidazolium tetrafluoroborate] + CC#N
[2]
Details | electrical conductivity [S/m] | mass density [kg/m3]
x1 = 0.004117 | 0.838 | 784.24
x1 = 0.008445 | 1.442 | 791.63
x1 = 0.01744 | 2.35 | 806.26
x1 = 0.03816 | 3.51 | 836.42
x1 = 0.06486 | 4.13 | 869.76
x1 = 0.09763 | 4.25 | 903.86
x1 = 0.1399 | 3.96 | 939.67
x1 = 0.1943 | 3.37 | 975.94
x1 = 0.2712 | 2.53 | 1014.86
x1 = 0.3907 | 1.543 | 1056.74
x1 = 0.5902 | 0.656 | 1100.45
x1 = 0.7435 | 0.344 | 1122.12
x1 = 0.8889 | 0.192 | 1137.2
x1 = 1 | 0.1228 | 1146.34

CCCCCCn1cc[n+](C)c1.F[B-](F)(F)F [1-hexyl-3-methylimidazolium tetrafluoroborate] + O
[2]
Details | electrical conductivity | mass density
x1 = 0.0007116 | 0.327 S/m | 998.06 kg/m3
x1 = 0.001428 | 0.567 S/m | 999.52 kg/m3
x1 = 0.001482 | 0.608 S/m | 999.64 kg/m3
x1 = 0.002238 | 0.854 S/m | 1001.24 kg/m3
x1 = 0.00296 | 1.05 S/m and 1.06 S/m | 1002.63 kg/m3 and 1002.7 kg/m3
x1 = 0.003642 | 1.225 S/m | 1003.94 kg/m3
x1 = 0.00447 | 1.411 S/m | 1005.24 kg/m3
x1 = 0.004747 | 1.47 S/m | 1005.61 kg/m3
x1 = 0.2816 | 2.03 S/m | 1113.63 kg/m3
x1 = 0.314 | 1.829 S/m | 1116.76 kg/m3
x1 = 0.3441 | 1.66 S/m | 1119.43 kg/m3
x1 = 0.3813 | 1.46 S/m | 1122.43 kg/m3
x1 = 0.4148 | 1.29 S/m | 1124.75 kg/m3
x1 = 0.5139 | 0.898 S/m | 1130.58 kg/m3
x1 = 0.5161 | 0.885 S/m | 1130.73 kg/m3
x1 = 0.7069 | 0.417 S/m | 1138.7 kg/m3
x1 = 1 | 0.1228 S/m | 1146.34 kg/m3

CC1COC(=O)O1 (stereo unspecified) [4-methyl-1,3-dioxolan-2-one] + CCCCn1cc[n+](C)c1.F[B-](F)(F)F
[2]
Details | electrical conductivity [S/m] | mass density [kg/m3]
x2 = 0.02318 | 0.537 | 1201.32
x2 = 0.04836 | 0.873 | 1202.51
x2 = 0.1028 | 1.23 | 1204.3
x2 = 0.1601 | 1.346 | 1205.43
x2 = 0.2277 | 1.332 | 1206.17
x2 = 0.3056 | 1.229 | 1206.51
x2 = 0.407 | 1.05 | 1206.44
x2 = 0.5126 | 0.875 | 1206.03
x2 = 0.6192 | 0.715 | 1205.48
x2 = 0.7173 | 0.593 | 1204.39
x2 = 0.8497 | 0.463 | 1203.39

ClCCl [dichloromethane] + CCCCn1cc[n+](C)c1.F[B-](F)(F)F
[2]
Details | electrical conductivity [S/m] | mass density [kg/m3]
x2 = 0.00755 | 0.0602 | 1316.6
x2 = 0.01921 | 0.2 | 1314.92
x2 = 0.02714 | 0.31 | 1313.4
x2 = 0.03878 | 0.436 | 1311.8
x2 = 0.07987 | 0.98 | 1304.97
x2 = 0.1395 | 1.427 | 1294.06
x2 = 0.194 | 1.55 | 1284.29
x2 = 0.2674 | 1.607 | 1271.96
x2 = 0.3355 | 1.53 | 1261.43
x2 = 0.4787 | 1.209 | 1242.95
x2 = 0.6019 | 0.93 | 1230.33
x2 = 0.773 | 0.62 | 1216.18
x2 = 0.8496 | 0.511 | 1211.19
x2 = 0.9107 | 0.441 | 1207.46
